Common to all, as to test: growth of human tumour cells (NCI), 48 h
In experiment [1] the test system is Hs-578T.
Experiment [2] concerns SW-620.
The test system of experiment [3] is NCI-H23.
Experiment [4] concerns TK-10.
Experiment [5] concerns HCC 2998.
Experiment [6] concerns RPMI-8226.
Experiment [7] has as its system HOP-92.
Experiment [8] has as its system NCI-H522.
In experiment [9] the test system is M14.
The test system of experiment [10] is NCI/ADR-RES.
Experiment [11] has as its system OVCAR-8.
In experiment [12] the test system is IGROV-1.
Experiment [13] deals with NCI-H460.
Experiment [14] relates to PC-3.
Experiment [15] relates to HL-60.
For experiment [16], the system named is DU-145.
Experiment [17] deals with SK-MEL-28.
Experiment [18] has as its system SK-MEL-5.
The test system of experiment [19] is HCT-116.

Structures are written as SMILES.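 Method: 48-hour compound exposure of cells in 96-well plates, five concentrations, linear interpolation of endpoints. Abbreviation: GI50, concentration required for 50% inhibition of growth.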 Calls of active or inactive are those of the source. Cut-off read from the data, not from the text of the source: active = GI50 up to about 1.1 µM and inactive = higher. Where a SMILES comes first, the peptide text is derived from it. Bridges are numbered along the chain shown (N, C = ends). [ ]: non-standard residue; d: D form. The star is where a group is joined. ξ: configuration not given here. X28 = O=C(/C=C/C=C/C=C/C=C/C=C/C(=O)*)NC1=C(O)CCC1=O; NMeA = CN[C@@H](C)C(=O)O; ξF = NC(Cc1ccccc1)C(=O)O; ξA = CC(N)C(=O)O A value given as a limit tells only on which side of the number the result lay.

Take `O=C(N/N=C\c1ccc([N+](=O)[O-])cc1)Nc1cccc2ccccc12`: the GI50 is 3.99 µM (inactive) in experiment [1]; > 100 µM (inactive) in experiment [2]; 18.8 µM (inactive) in [3]; 14.5 µM (inactive) in [4]; 24.1 µM (inactive) in experiment [5]; > 100 µM (inactive) in experiment [6]. Further, the GI50 in experiment [7] is 6.15 µM (inactive); in experiment [8] it was 20.4 µM (inactive); in experiment [9] it was 58.9 µM (inactive); in experiment [10], 19.1 µM (inactive); in experiment [11], 6.03 µM (inactive); in experiment [12], > 63.2 µM (inactive). Further, the GI50 is > 37.3 µM (inactive) in experiment [13]; 23 µM (inactive) in experiment [14]; > 31.6 µM (inactive) in experiment [15]; 24.9 µM (inactive) in [16]; > 100 µM (inactive) in experiment [17]; 31.3 µM (inactive) in experiment [18]. The GI50 in experiment [19] is 28.5 µM (inactive).
For `NS(=O)(=O)c1ccc(NNC(=O)c2cccc3c(=O)c4ccccc4[nH]c23)cc1`, the GI50 in experiment [1] is 72.8 µM (inactive); in [2] it was 72.6 µM (inactive); in experiment [3] it was > 100 µM (inactive); in experiment [4] it was > 100 µM (inactive); in experiment [5] it was > 100 µM (inactive); in [6] it was 54.7 µM (inactive). Further, the GI50 in [7] is 34.4 µM (inactive); in experiment [8], 41.4 µM (inactive); in experiment [9], > 100 µM (inactive); in experiment [10], > 100 µM (inactive); in [11], > 100 µM (inactive); in experiment [12], 58.5 µM (inactive). Also, the GI50 in [13] was 87.7 µM (inactive); in experiment [14] it was 65.6 µM (inactive); in experiment [15], 35 µM (inactive); in experiment [16], > 100 µM (inactive); in [17], > 100 µM (inactive); in [18] it was 34 µM (inactive). In addition, the GI50 in experiment [19] is 52.1 µM (inactive).
As for `Cc1ccc(C(=O)N/N=C(\N=N\c2ccccc2C(=O)O)c2ccc(N(C)C)cc2)cc1`, the GI50 was > 100 µM (inactive) in [1]; > 100 µM (inactive) in [2]; > 100 µM (inactive) in experiment [3]; > 100 µM (inactive) in experiment [4]; 71.4 µM (inactive) in experiment [5]; > 100 µM (inactive) in experiment [6]. In addition, the GI50 in experiment [7] is > 100 µM (inactive); in experiment [8] it was 46.3 µM (inactive); in experiment [9], 64.6 µM (inactive); in experiment [10], 71.6 µM (inactive); in experiment [11] it was > 100 µM (inactive); in experiment [12] it was > 100 µM (inactive). Also, the GI50 in experiment [13] is 72.6 µM (inactive); in experiment [14] it was > 100 µM (inactive); in experiment [15] it was 53.5 µM (inactive); in [16], > 10 µM (inactive); in experiment [17], > 100 µM (inactive); in experiment [18] it was > 100 µM (inactive). Moreover, the GI50 in experiment [19] was > 100 µM (inactive).
On to `CC[C@H]1CN(C)[C@H]2Cc3c([nH]c4ccccc34)C(=O)C[C@H]1C2C(=O)OC` (stereo partly specified), for which the GI50 in [1] is > 100 µM (inactive); in [2], > 100 µM (inactive); in [3], > 100 µM (inactive); in [4], > 100 µM (inactive); in experiment [5], > 100 µM (inactive); in [6], 57.8 µM (inactive). Further, the GI50 in [7], in [8], in experiment [9], in experiment [10], in experiment [11] and in [12] was > 100 µM (inactive) throughout. Moreover, the GI50 in experiment [13] is > 100 µM (inactive); in [14], > 100 µM (inactive); in experiment [15] it was 68.9 µM (inactive); in [16], > 100 µM (inactive); in [17] it was > 100 µM (inactive); in [18], > 100 µM (inactive). Moreover, in experiment [19], the GI50 is > 100 µM (inactive).
`C=C(C)[C@@H]1CCC2=C[C@H](C/C(C)=C\C3=CC(C)=C(O3)[C@H]1O)OC2=O`: the GI50 in experiment [1] was 65.5 µM (inactive); in experiment [2], > 100 µM (inactive); in experiment [4], 71 µM (inactive); in experiment [5] it was > 100 µM (inactive); in [6], > 100 µM (inactive); in [7] it was 56.4 µM (inactive). Besides, the GI50 in experiment [8] is 68.5 µM (inactive); in experiment [9] it was > 100 µM (inactive); in [10], > 100 µM (inactive); in experiment [11] it was 73.8 µM (inactive); in experiment [12], 93.1 µM (inactive); in experiment [13] it was > 100 µM (inactive). Besides, the GI50 in experiment [14] is 73.8 µM (inactive); in experiment [15], > 100 µM (inactive); in [16], > 100 µM (inactive); in [17], > 100 µM (inactive); in experiment [18] it was > 100 µM (inactive).
On to `CCOC(=O)NC(Nc1ccc(F)cc1)(C(=O)OCC)C(F)(F)F` (stereo unspecified), for which the GI50 is > 100 µM (inactive) in experiment [1]; 1.22 µM (inactive) in experiment [2]; > 100 µM (inactive) in [3]; > 24.7 µM (inactive) in [4]; > 100 µM (inactive) in experiment [5]; 2.65 µM (inactive) in experiment [6]. For the same compound, the GI50 in experiment [7] is > 100 µM (inactive); in experiment [8] it was > 100 µM (inactive); in [9], 0.156 µM (active); in experiment [10], 12 µM (inactive); in [11], 7.06 µM (inactive); in [13] it was > 21.7 µM (inactive). In addition, the GI50 in experiment [14] was 4.15 µM (inactive); in experiment [15] it was 0.526 µM (active); in [16], > 21.5 µM (inactive); in [17], > 88.5 µM (inactive); in experiment [18], 0.192 µM (active); in [19] it was 3.12 µM (inactive).
For `O=C1C(Cl)=C(N2C(=O)CCC2=O)C(=O)c2ccccc21`, the GI50 was > 100 µM (inactive) in experiment [1]; 23.1 µM (inactive) in experiment [2]; 29 µM (inactive) in experiment [3]; 39.8 µM (inactive) in experiment [4]; 22.5 µM (inactive) in experiment [5]; 7.83 µM (inactive) in experiment [7]. Also, the GI50 in experiment [8] was 17.8 µM (inactive); in experiment [9], 45.7 µM (inactive); in experiment [10], 89.3 µM (inactive); in experiment [11], 37.1 µM (inactive); in experiment [12], 44.4 µM (inactive); in experiment [13] it was 53.6 µM (inactive). Further, the GI50 in experiment [14] was 53.2 µM (inactive); in experiment [15] it was 2.51 µM (inactive); in experiment [16], 32.7 µM (inactive); in experiment [17], 20.4 µM (inactive); in experiment [18] it was 19.8 µM (inactive); in experiment [19] it was 22.8 µM (inactive).
In the case of `CCCNc1[nH]c(C(=O)c2ccccc2)c(N)c1C(=S)Nc1ccccc1`, the GI50 in [1], in experiment [2], in experiment [3], in experiment [4], in experiment [5] and in [7] was > 100 µM (inactive) each time. In addition, the GI50 in experiment [8], in experiment [9], in experiment [10], in [11], in experiment [12] and in [13] was > 100 µM (inactive) throughout. Moreover, the GI50 in experiment [14], in experiment [15], in experiment [16], in experiment [17], in experiment [18] and in experiment [19] was > 100 µM (inactive) in each case.
As for `O=C1C(Br)=CC2(C=C1Br)CCNC1=C2C(=O)c2[nH]cnc2C1=O`, the GI50 is 26.3 µM (inactive) in [1]; 17.7 µM (inactive) in [2]; 12.6 µM (inactive) in experiment [3]; 29.2 µM (inactive) in [4]; 25.8 µM (inactive) in [5]; 14.5 µM (inactive) in [6]. The GI50 was 12.3 µM (inactive) in experiment [7]; 14.4 µM (inactive) in experiment [8]; 16.9 µM (inactive) in experiment [9]; 21.1 µM (inactive) in experiment [10]; 16.8 µM (inactive) in experiment [11]; 16.7 µM (inactive) in [13]. In addition, the GI50 in experiment [14] is 25.7 µM (inactive); in experiment [15], 4.79 µM (inactive); in experiment [16], 16 µM (inactive); in experiment [17] it was 16.1 µM (inactive); in [18], 11.2 µM (inactive); in [19], 14.7 µM (inactive).
Turning to `CC1NC(=O)[C@H](C)N(C)C(=O)[C@@H]2CCCN2C(=O)[C@@H](NC(=O)C(Cc2ccccc2)NC(=O)/C=C/C=C/C=C/C=C/C=C/C(=O)NC2=C(O)CCC2=O)COC(=O)[C@@H]2CCCN2C1=O` (stereo partly specified) (X28-[ξF]SP[NMeA][ξA]P; ester 2-C), the GI50 in experiment [1] is 59.2 µM (inactive); in experiment [2], > 100 µM (inactive); in [3], > 100 µM (inactive); in [4], 30.3 µM (inactive); in experiment [5] it was > 100 µM (inactive); in experiment [6], > 100 µM (inactive). For the same compound, the GI50 was 78.2 µM (inactive) in experiment [7]; > 100 µM (inactive) in experiment [8]; > 100 µM (inactive) in experiment [9]; > 100 µM (inactive) in [10]; > 100 µM (inactive) in [12]; > 100 µM (inactive) in experiment [13]. For the same compound, the GI50 is > 100 µM (inactive) in [14]; > 100 µM (inactive) in [15]; 89.3 µM (inactive) in experiment [16]; > 100 µM (inactive) in experiment [17]; > 100 µM (inactive) in experiment [18]; > 100 µM (inactive) in [19].
For the compound `Cc1c(-c2ccccc2)cc(O)c2nc3ccccc3n12`, the GI50 in [1] was 55.1 µM (inactive); in experiment [2], 20.7 µM (inactive); in experiment [3], > 100 µM (inactive); in experiment [4], > 100 µM (inactive); in experiment [5], 17.8 µM (inactive); in [6], 7.43 µM (inactive). Moreover, the GI50 in [7] is 10.2 µM (inactive); in experiment [8], 20.4 µM (inactive); in [9], > 100 µM (inactive); in experiment [10], 7 µM (inactive); in experiment [11], > 100 µM (inactive); in experiment [12], 39.5 µM (inactive). Also, the GI50 is 6.31 µM (inactive) in experiment [13]; 31.7 µM (inactive) in [14]; 4.97 µM (inactive) in [15]; > 100 µM (inactive) in [16]; > 100 µM (inactive) in [17]; 44 µM (inactive) in experiment [18].

The record behind these values is ChEMBL document CHEMBL1201862, “PubChem BioAssay data set” (2004).
